Experimental data taken from patent publication US20210353579A1, “HIGH PENETRATION COMPOSITIONS AND USES THEREOF” (Techfields Pharma Co., Ltd., priority 2006, published 2021).
≈ marks a conversion by molar mass, not a printed value. Where two headings read alike, the source gives them in different places.

What was measured:
[1] = Solubility in water / aqueous solubility of HPPs and parent drugs; conditions: for Solubility in water: product as prepared in Example 1
human skin tissue [2] = assay: In vitro penetration rate through human skin, modified Franz cells; conditions: 20% solution in 0.2 M phosphate buffer pH 7.4, human skin, Franz cell
rats = assay: Antipyretic activity, E. coli suspension as pyrogen; format: in vivo; conditions: in °C (unit assumed)
Method: Rats are administered with sterilized E. coli suspension as a pyrogen. Each group of rats are administered with a prodrug compounds or parent compounds at a dosage specified below. The prodrug compounds are administered either orally or transdermally. The parent compounds are administered orally.

[3] = Plasma levels after transdermal administration to hairless mice; format: in vivo; conditions: for Peak plasma concentration of parent compound after prodrug compound / t, time to peak plasma level of parent compound after prodrug compound: transdermal, 20% in 1 mL isopropanol
Method: Tested compounds (20% solution or suspension in 1 mL isopropanol) are administered transdermally to the skin of intact hairless mice. The plasma levels of the parent compounds are determined by HPLC.

mice = assay: Analgesic activity, acetic acid writhing; format: in vivo; conditions: 30 min before acetic acid
Method: The prodrug compounds are administered either transdermally or orally. The parent compounds are administered orally. The number of writhing that occurred when mice are administered the acetic acid solution are counted, and the rate of inhibition based on the control group which was not pretreated with any test compounds is calculated. […] The A group is the control group.

Chinese white rabbits = assay: Malassezia-induced lesions similar to psoriasis; format: in vivo, rabbit; conditions: 5% aqueous solution twice per day, 10 days after application
Text: Heavy suspensions of Malassezia [Rosenberg, E. W., et al., Mycopathologia, 72, 147-154 (1980)] were applied to the shaved skin on the backs of the Chinese white rabbits (n=4×6) twice (at 7 am and 7 pm) per day for 2 weeks, lesions similar to psoriasis resulted.

C57/BL6 mice, MPTP = assay: MPTP Parkinson's disease mice: GABA and Glu in substantia nigra and striatum; conditions: mouse, in vivo
Method: Group A mice were i.p. injected 0.4% sodium carboxymethylcellulos (15 ml/kg per day) for 7 days. Group B and C mice were i.p. injected N-methyl-4-phenyl-1,2,3,6-tetrahydropyridine (MPTP, 30 mg/kg per day) for 7 days. The mice were divided into 2 groups. […] All mice were killed after the last treatment and the brain tissues were quickly frozen at −80° C. […] The contents of GABA and Glu in the striatum and SN were shown by high performance amino acid auto-analyser.

human skin tissue [4] = conditions: pH 7.4
[5] = Distribution of prodrug and metabolites in tissues after application to the back of killed rats; format: in vivo; conditions: Wistar, rat, 50 mg/kg, 3 h after 50 mg/kg prodrug citric acid salt on the back of killed rat, 37° C.
Method: The mixture was centrifuged for 5 minutes at 16,000 rpm. The supernatant (2 ml) was collected and evaporated to dryness.

[6] = Plasma levels after transdermal administration to hairless mice; conditions: mouse, in vivo, po
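For LD50 of HPP in this document: acute toxicity in rats expressed as LD50, determined for both prodrugs and their parent compounds.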
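For LD50 of parent drug in this document: acute toxicity in rats expressed as LD50, determined for both prodrugs and their parent compounds.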

Compound: CC(=O)O.CCN(CC)CCOC(=O)Cc1ccccc1Nc1c(Cl)cccc1Cl [diethylaminoethyl 2[(2,6-dichlorophenyl)amino]benzene acetate.AcOH]
- LD50 of HPP (rat; rat, in vivo): 800 mg/kg
- Solubility of HPP ([1]; in water): >300 mg/mL
- Solubility in water [1]: 400 mg/mL
- In vitro penetration rate (apparent flux), prodrug compounds (human skin tissue [2]): 5000 μg/cm^2/h
- body temperature, t = 0 min (rats; 10 mg/kg orally): 37.52 ± 0.07
- body temperature, t = 90 min (rats; 10 mg/kg orally): 36.50 ± 0.06
- body temperature, t = 180 min (rats; 10 mg/kg orally): 36.60 ± 0.05
- body temperature, t = 270 min (rats; 10 mg/kg orally): 36.55 ± 0.08
- body temperature, t = 0 min (rats; 10 mg/kg transdermally): 37.58 ± 0.06
- body temperature, t = 90 min (rats; 10 mg/kg transdermally): 36.30 ± 0.06
- body temperature, t = 180 min (rats; 10 mg/kg transdermally): 36.35 ± 0.08
- body temperature, t = 270 min (rats; 10 mg/kg transdermally): 36.31 ± 0.07
- body temperature, t = 0 min (rats; 20 mg/kg orally): 37.54 ± 0.08
- body temperature, t = 90 min (rats; 20 mg/kg orally): 36.30 ± 0.05
- body temperature, t = 180 min (rats; 20 mg/kg orally): 36.35 ± 0.07
- body temperature, t = 270 min (rats; 20 mg/kg orally): 36.38 ± 0.08
- body temperature, t = 0 min (rats; 20 mg/kg transdermally): 37.59 ± 0.05
- body temperature, t = 90 min (rats; 20 mg/kg transdermally): 36.25 ± 0.05
- body temperature, t = 180 min (rats; 20 mg/kg transdermally): 36.30 ± 0.07
- body temperature, t = 270 min (rats; 20 mg/kg transdermally): 36.20 ± 0.05
- Peak plasma concentration of parent compound after prodrug compound ([3]; hairless mice): 2100 mg/L
- t, time to peak plasma level of parent compound after prodrug compound ([3]; hairless mice): 40 min
- % (rate of writhing inhibition) (mice; 10 mg/kg orally): 64.6%
- No. of Writhing (mice; 10 mg/kg orally): 12.1
- % (rate of writhing inhibition) (mice; 10 mg/kg transdermally): 69.9%
- No. of Writhing (mice; 10 mg/kg transdermally): 10.3
- % (rate of writhing inhibition) (mice; 20 mg/kg orally): 73.1%
- No. of Writhing (mice; 20 mg/kg orally): 9.2
- % (rate of writhing inhibition) (mice; 20 mg/kg transdermally): 74.3%
- No. of Writhing (mice; 20 mg/kg transdermally): 8.8

Compound: CC(=O)O.CCN(CC)CCOC(=O)Cc1cc(C)c(C(=O)c2ccc(Cl)cc2)n1C [diethylaminoethyl 5-(4-Chlorobenzoyl)-1,4-dimethyl-1H-pyrrole-2-acetate.AcOH]
- LD50 of HPP (rat; rat, in vivo): 200 mg/kg
- lesions similar to psoriasis (Chinese white rabbits): the lesions were resolved
- In vitro penetration rate (apparent flux), prodrug compounds (human skin tissue [2]): 1200 μg/cm^2/h
- body temperature, t = 0 min (rats; 100 mg/kg transdermally): 37.21 ± 0.07
- body temperature, t = 90 min (rats; 100 mg/kg transdermally): 36.82 ± 0.06
- body temperature, t = 180 min (rats; 100 mg/kg transdermally): 36.70 ± 0.05
- body temperature, t = 270 min (rats; 100 mg/kg transdermally): 36.70 ± 0.08
- Peak plasma concentration of parent compound after prodrug compound ([3]; hairless mice): 20 mg/L
- t, time to peak plasma level of parent compound after prodrug compound ([3]; hairless mice): 50 min
- % (rate of writhing inhibition) (mice; 100 mg/kg transdermally): 55%
- No. of Writhing (mice; 100 mg/kg transdermally): 15.6

Compound: CC(=O)O.CCN(CC)CCOC(=O)C(C)c1ccc2c(c1)[nH]c1ccc(Cl)cc12 (stereo not drawn) [diethylaminoethyl 6-chloro-α-methyl-9H-carbazole-2-acetate.AcOH]
- LD50 of HPP (rat; rats): 700 mg/kg
- Solubility of HPP ([1]; medium not given): >350 mg/mL
- Solubility in water [1]: 400 mg/mL
- In vitro penetration rate (apparent flux), prodrug compounds (human skin tissue [2]): 4000 μg/cm^2/h
- body temperature, t = 0 min (rats; 100 mg/kg transdermally): 37.28 ± 0.06
- body temperature, t = 90 min (rats; 100 mg/kg transdermally): 36.68 ± 0.05
- body temperature, t = 180 min (rats; 100 mg/kg transdermally): 36.62 ± 0.08
- body temperature, t = 270 min (rats; 100 mg/kg transdermally): 36.58 ± 0.07
- Peak plasma concentration of parent compound after prodrug compound ([3]; hairless mice): 2000 mg/L
- t, time to peak plasma level of parent compound after prodrug compound ([3]; hairless mice): 50 min
- % (rate of writhing inhibition) (mice; 100 mg/kg transdermally): 59%
- No. of Writhing (mice; 100 mg/kg transdermally): 14.2

Compound: NC(=O)C[S+]([O-])C(c1ccccc1)c1ccccc1 (stereo not drawn) [modafinil, reference compound]
- increase of nigrostriatal Glu release induced by MPTP (C57/BL6 mice, MPTP): did not change

Compound: O=C(O)c1ccccc1O [salicylic acid]
- solubility ([1]; water): 0.1 mg/mL (≈ 724 µM)
- In vitro penetration rate (apparent flux), parent compounds (human skin tissue [4]; human, 20 %): <1 μg/cm^2/h
- t, time to peak plasma level after parent compound ([3]; parent compound administered (time when taken orally)): 1 to 2 h
- Peak plasma concentration after parent compound ([3]; parent compound administered, hairless mice): 0.1 mg/L
- concentration at 3 h ([5]; read-out: amount in Bone): 35000 ± 6000 ng/g
- concentration at 3 h ([5]; read-out: amount in Brain): 30000 ± 6000 ng/g
- concentration at 3 h ([5]; read-out: amount in Liver): 45000 ± 8000 ng/g
- concentration at 3 h ([5]; read-out: amount in Plasma): 65 ± 10 µg/mL

Compound: salicylsalicylic acid [Salsalate, reference compound]
- t, time to peak plasma level after parent compound [6]: 1 to 2 h
- LD50 of parent drug (rat; rats): 1500 mg/kg
- In vitro penetration rate (apparent flux), parent compounds (human skin tissue [4]): <1 μg/cm^2/h
- Peak plasma concentration after parent compound ([3]; mouse, in vivo): 0.1 mg/L
